Read-outs that look alike come from different tables or passages of the source.
Target: human PDE4D catalytic domain (UniProt no. Q08499) (Homo sapiens (Human), UniProt Q08499)
Assay: PDE4 assay (TR-FRET, FAM-cAMP cleavage)
Type: biochemical
Conditions: read-out: PDE4 IC50 range
Procedure, shortened: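 Read-out is time-resolved FRET from Tb donor to FAM-AMP captured on trivalent-metal nanoparticles added to stop the reaction. Substrate was a mix of plain and FAM-labelled cAMP, cleaved by human PDE4D catalytic domain ([…]) with titrated compound; IC50 ranges (nM) versus controls.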

[1] = human PDE4D catalytic domain, molar concentration giving 50% inhibition of substrate cleavage

human PDE4D catalytic domain, sequence (Q08499 380-740 limits assumed): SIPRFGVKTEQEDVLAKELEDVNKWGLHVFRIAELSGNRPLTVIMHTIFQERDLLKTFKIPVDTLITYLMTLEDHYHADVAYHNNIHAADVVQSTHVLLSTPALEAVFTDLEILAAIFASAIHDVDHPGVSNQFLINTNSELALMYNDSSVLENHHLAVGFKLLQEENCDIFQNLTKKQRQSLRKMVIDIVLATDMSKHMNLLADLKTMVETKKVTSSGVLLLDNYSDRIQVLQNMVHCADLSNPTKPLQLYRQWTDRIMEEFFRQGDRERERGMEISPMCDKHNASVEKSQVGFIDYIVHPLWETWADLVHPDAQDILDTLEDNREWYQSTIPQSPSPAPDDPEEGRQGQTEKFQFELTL

| Structure (SMILES) | IC50 [1] | IC50 |
| --- | --- | --- |
| CCc1ccc(C(=O)OCCCn2nc(CC)c3c2CC2(CCOCC2)CNC3=O)cc1 [Example 2, 3-(3-Ethyl-4-oxo-spiro[6,8-dihydro-5H-pyrazolo[4,3-c]azepine-7,4′-tetrahydropyran]-1-yl)propyl 4-ethylbenzoate] | < 100 nM |  |
| CCc1nn(CC(C)(C)COC(=O)c2cccc(C(=O)N3CCCCC3)c2)c2c1C(=O)NCC1(CCOCC1)C2 [Example 345] |  | < 100 nM |
| CCc1nn(CCCOC(=O)c2cccc(Cl)c2C)c2c1C(=O)NCC1(CCOCC1)C2 [Example 74, 3-(3-ethyl-4-oxo-spiro[6,8-dihydro-5H-pyrazolo[4,3-c]azepine-7,4′-tetrahydropyran]-1-yl)propyl 3-chloro-2-methyl-benzoate] | < 100 nM |  |
| CCc1nn(CCCOC(=O)c2ccc(S(=O)(=O)N(C)C)cc2)c2c1C(=O)NCC1(CCOCC1)C2 [Example 131, 3-(3-ethyl-4-oxo-spiro[6,8-dihydro-5H-pyrazolo[4,3-c]azepine-7,4′-tetrahydropyran]-1-yl)propyl 4-(dimethylsulfamoyl) benzoate] | < 100 nM |  |
